Data on two molecules can be found in US20250108036A1, “COMPOSITIONS FOR REMOVING SENESCENT CELLS AND USES THEREOF” (LIFECEUTIX CO., LTD., priority 2021, published 2025).

For assay [1], the system named is IL6, MCP1. As to the kind of experiment: serum IL6 and MCP1 ELISA in naturally aged mice (Example 7-5). The note with it: LX-112 70 mg/kg oral daily 21 days. It is filed as in vivo, C57BL6J mice. The procedure:
After 22-month-old female C57BL6J mice (purchased from KRIBB Laboratory Animal Resource Center) were adapted to the experimental environment for one week, the aged mice were randomized into an experimental group and a control group. 8-week-old mice that were not aged were used as controls. LX-112 was mixed with 0.5% CMC-Na solution (purchased from Sigma) and administered orally at a concentration of 70 mg/kg daily for 21 days. The control group was administered only the solution in the same volume. After drug administration was completed, the method described in each Example below was performed.
Serum collected from mice was stored at −80° C. until use. The amounts of IL6 and MCP1, which are aging-related inflammation secretory factors (SASPs), were measured in serum using an enzyme-linked immunosorbent assay (ELISA Kit, purchased from R&D Systems).
For orientation: In an ELISA, binding on a coated surface is turned into a signal by an enzyme label.

Assay [2] has as its system aging-related inflammation and fibrosis secretory factors (SASP). Kind of assay: ProcartaPlex immunoassay of SASP factors in culture medium of senescent foreskin cells (Example 5). To be noted: LX-112 3 μM; senescent untreated = 100%. Format: cell-based, human. The procedure: In the same manner as Example 3, natural aging of human foreskin cells was induced and treated with LX-112 at a concentration of 3 μM. Then the expression levels of aging-related inflammation and fibrosis secretory factors (SASP), IL1α, IL1β, IL6, IL10, MCP1, PAI1 VCAM1, MMP1, MMP2, MMP3, MMP12, and TGFβ, were measured using an immunoassay (ProcartaPlex Immunoassay, purchased from Thermo Fisher Scientific) with the obtained culture medium. […] Table 17 calculates the amount of each factor after inducing aging to 100% and compares it with the amount of each factor after treatment with LX-112.

The subject of assay [3] is IL6, CXCL1, CXCL10, IL1β. As to the kind of experiment: SASP mRNA qRT-PCR in doxorubicin-aged mice (Example 8-6). It is filed as in vivo, C57BL6J mice. To be noted: doxorubicin-aged mice, LX-112 70 mg/kg oral daily 21 days; DOX without LX = 100%. The procedure: After adapting 8-week-old male C57BL6J mice (purchased from KRIBB Laboratory Animal Resource Center) to the experimental environment for 1 week, doxorubicin, an anticancer drug, was administered intraperitoneally at a concentration of 10 mg/kg, and mice that were induced to age for more than 10 days were assigned to an experimental group and a control group. LX-112 was mixed with 0.5% CMC-Na solution (purchased from Sigma) and administered orally at a concentration of 70 mg/kg daily for 21 days. The control group was administered only the solution in the same volume. After drug administration was completed, the method described in each Example below was performed.
Using cDNA synthesized in the same manner as Example 7-6, qRT-PCR was performed and analyzed for aging-related inflammation and fibrosis secretory factors (SASP) such as IL6, CXCL1, CXCL10, and IL1β. […] Table 45 calculates the mRNA amount of each factor after aging was induced by treatment with the anticancer drug as 100% and compared it with the mRNA amount of each factor after treatment with LX-112.
For orientation: Real-time PCR tracks product formation cycle by cycle.

For assay [4], the system named is umbilical cord-derived mesenchymal stem cells. As to the kind of experiment: death of senescent stem cells by LX-112. Format: cell-based, human. To be noted: LX-112 10 μM. The procedure:
In addition to somatic cells, the death of senescent cells by LX-112 was confirmed to be about 50% in stem cells (umbilical cord-derived mesenchymal stem cells, purchased from ATCC) at a concentration of 10 μM. From this, it was confirmed that LX-112 can effectively remove senescent cells by inducing their death.

Assay [5] can be described thus: open field test in obese mice given senescent cells killed by test compounds (Example 16, Table 72). It is filed as in vivo, C57BL6J mice. The note with it: obese mice administered senescent cells whose death was induced by the test compound. The method in brief:
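Doxorubicin-senesced (250 nM, 24 h, then 21 days) mouse preadipocytes killed by test compound were injected subcutaneously (5×10^5 cells) into 8-week-old female C57BL6J mice, followed by intraperitoneal senescent preadipocytes on days 7 and 10 and 8 weeks of high-fat diet. Open-field activity expressed as % of mice without killed-cell administration.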

As to `O=c1c2ccccc2[se]n1CCn1[se]c2ccccc2c1=O` [LX-112, 1,2-[bis(1,2-benzisoselenazolone-3(2H)-ketone)]ethane], in assay [1], the “IL6 (%)” value is given as 63 (±12.8) % and the “MCP1 (%)” value was 58 (±9.8) %. Further, in assay [2], the “Protein (%) IL1α” value is 57 (±5) %, the “Protein (%) IL1β” value is 46 (±6) %, the “Protein (%) IL6” value is 41 (±4) % and the “Protein (%) IL10” value is listed as 57 (±7) %. Also, in assay [2], the “Protein (%) MCP1” value is 38 (±8) %, the “Protein (%) MMP1” value was 43 (±3) %, the “Protein (%) MMP2” value was 39 (±9) % and the “Protein (%) MMP3” value was 38 (±8) %. In assay [2], the “Protein (%) MMP12” value was 41 (±6) %, the “Protein (%) PAI1” value was 41 (±4) %, the “Protein (%) TGFβ” value was 49 (±9) % and the “Protein (%) VCAM1” value is on record as 45 (±5) %. In assay [3], the “mRNA (%) CXCL1, Liver” value is reported as 68 (±21.1) %; the “mRNA (%) CXCL1, eWAT” value was 94.8 (±1.2)^ %; the “mRNA (%) CXCL10, Liver” value is 84 (±11.5) %; the “mRNA (%) CXCL10, eWAT” value is 74 (±11) %. In assay [3], the “mRNA (%) IL1β, Liver” value was 42 (±35.2) %; the “mRNA (%) IL1β, eWAT” value is given as 38 (±37) %; the “mRNA (%) IL6, Liver” value is reported as 42 (±23.5) %; the “mRNA (%) IL6, eWAT” value was 48.6 (±12.5) %. For the same molecule, in assay [4], the “death of senescent cells” value is reported as “about 50%”.
For `COC(=O)c1ccc([C@H]2c3[nH]c4ccccc4c3C[C@H](C(=O)OC)N2C(=O)CCl)cc1` [LX-405], the “Open Field Test Time in Center (%)” value in assay [5] is recorded as 174.2 (±12.5) %.
